For orientation: Ki means the equilibrium dissociation constant of an inhibitor or competing ligand from its target. A word on the EC50: it is the concentration that produces a half-maximal response. What is called pEC50 is −log10 of the EC50, conventionally taken in molar units.

The results in this text go back to patent US12252524B2, “GIP/GLP1 co-agonist compounds” (Eli Lilly and Company, priority 2018, dated 2025).

One test concerns the target T1, human Gcg receptor (Homo sapiens, UniProt P47871).
T1 construct: expressed in transfected cells; crude membranes
Description: [125I]-Glucagon binding (SPA), human Gcg receptor. Conditions: read-out: hGLcgR Ki, nM (SEM, n). In a few lines:
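Crude membranes from cells expressing the receptor, prepared by hypotonic lysis in 50 mM Tris HCl pH 7.5 with protease inhibitors, homogenization and differential centrifugation, were used in a WGA-bead SPA. Binding buffer: 25 mM HEPES pH 7.4, 2.5 mM CaCl2, 1 mM MgCl2, bacitracin, Tween-20.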

The target of test [1] is T2, human GLP-1R (Homo sapiens, UniProt P43220). As to the kind of experiment: [125I]-GLP-1 binding (SPA), human GLP-1 receptor. Particulars: read-out: hGLP1R Ki, (nM) (SEM, n). The arrangement: expressed in transfected cells; crude membranes. The essentials:
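Crude-membrane binding assay; one membrane prep included 1 mM MgCl2 and 25 units/ml DNAse I during lysis. Assay buffer at pH 7.4 contains 0.1% (w/v) bacitracin and 0.003% (w/v) TWEEN-20. Ki is reported as geometric mean.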

The target of test [2] is human GLP-1 receptor (GLP-1R) (Homo sapiens, UniProt P43220). As to the kind of experiment: cAMP pharmacological functional assay in presence of casein, hGLP-1R. The class given is cell-based. Particulars: HEK293 cells expressing hGLP-1R, 0.1% Casein, geometric mean; read-out: hGLP1R cAMP Rel EC50 nM (SEM, n).
Test [3] has as its target T3, gastric inhibitory peptide receptor (GIPR) (Homo sapiens, UniProt P48546).
T3 sequence (P48546 22-466): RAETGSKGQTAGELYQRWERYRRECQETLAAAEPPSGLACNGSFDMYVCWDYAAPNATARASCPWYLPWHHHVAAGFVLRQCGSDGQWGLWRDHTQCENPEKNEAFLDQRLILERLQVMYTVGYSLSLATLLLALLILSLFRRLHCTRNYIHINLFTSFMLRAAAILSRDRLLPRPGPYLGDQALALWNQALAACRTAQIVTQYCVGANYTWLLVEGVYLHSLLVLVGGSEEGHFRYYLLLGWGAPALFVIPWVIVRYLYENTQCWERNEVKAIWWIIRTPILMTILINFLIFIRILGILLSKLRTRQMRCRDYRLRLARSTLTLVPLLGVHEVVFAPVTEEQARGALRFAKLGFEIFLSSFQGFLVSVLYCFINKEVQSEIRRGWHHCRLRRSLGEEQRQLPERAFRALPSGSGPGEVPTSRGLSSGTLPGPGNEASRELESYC
As to the kind of experiment: cAMP pharmacological functional assay in presence of casein, hGIPR. The class given is cell-based. Particulars: HEK293 cells expressing hGIPR, 0.1% Casein, geometric mean; read-out: hGIPR cAMP Rel EC50 nM (SEM, n).

The target of test [4] is T2, human GLP-1R. Description: GLP-1R CHO cell β-arrestin recruitment assay. The class given is cell-based. The arrangement: host or cells: CHO-K1 PathHunter cells, assay-ready frozen. Particulars: for EC50: PathHunter β-arrestin-2 recruitment, 0.1% casein, read-out: hGLP1R B-Arrestin2 Rel EC50 uM (SEM, n); for hGLP1R B-Arrestin2 % Top: normalized to GLP-1 maximum control. An excerpt: Activated G-protein coupled receptors can interact with the β-arrestin family of signalling proteins. […] CHO-K1 cells expressing Pro-Link-tagged Human GLP-1R and enzyme-acceptor-tagged β-arrestin-2 may be obtained from DiscoveRx and prepared as assay-ready frozen cells. Test peptides are solubilized in DMSO and serial dilutions are perfomed using the Echo acoustic dispenser (LabCyte). Assay media is the PathHunter Cell Assay Buffer (DiscoveRx) containing 0.1% w/v hydrolyzed Casein (Sigma). […] Plates are incubated for 90 minutes in a 37′C/5% C02 incubator and 10 ul of PathHunter detection reagent is added (DiscoveRx) and plates are incubated at room temperature for 60 minutes. Luminescence signal is measured. Peptide concentration-response curves fit to a four-parameter logistic model to calculate potency as an EC50.

A further test addresses T4, human GIP receptor (Homo sapiens, UniProt P48546).
T4 construct: expressed in transfected cells; crude membranes
T4 sequence (P48546 22-466): T3 sequence (P48546 22-466)
Description: [125I]-GIP binding (SPA), human GIP receptor. Particulars: read-out: hGIPR Ki, nM (SEM, n).

Structures are written as SMILES. pEC50: −log10 of the molar value. Like-named read-outs stand apart in the source and are kept apart here. Numbered stars: 1 amine (or outer) side, 2 acyl side, 3 side chain; on linkers, the order of the positions; unused ones are H or OH. Square brackets hold non-standard residues; d marks the D form. Side chains are listed from the residue outwards. Peptide text beside a SMILES is read from it. * marks the point of attachment. C20 diacid = O=C(O)CCCCCCCCCCCCCCCCCCC(=O)*; C18 diacid = O=C(O)CCCCCCCCCCCCCCCCC(=O)*; αMePhe(2-F) = C[C@](N)(Cc1ccccc1F)C(=O)O; γGlu = O=C(O)[C@H](CCC(=O)[*:2])N[*:1]; 4Pal = N[C@@H](Cc1ccncc1)C(=O)O; αMeL = CC(C)C[C@](C)(N)C(=O)O; Orn = NCCC[C@H](N)C(=O)O; Dab = NCC[C@H](N)C(=O)O; AEEA = NCCOCCOCC(=O)O; Aib = CC(C)(N)C(=O)O

T2 sequence (P43220 24-463): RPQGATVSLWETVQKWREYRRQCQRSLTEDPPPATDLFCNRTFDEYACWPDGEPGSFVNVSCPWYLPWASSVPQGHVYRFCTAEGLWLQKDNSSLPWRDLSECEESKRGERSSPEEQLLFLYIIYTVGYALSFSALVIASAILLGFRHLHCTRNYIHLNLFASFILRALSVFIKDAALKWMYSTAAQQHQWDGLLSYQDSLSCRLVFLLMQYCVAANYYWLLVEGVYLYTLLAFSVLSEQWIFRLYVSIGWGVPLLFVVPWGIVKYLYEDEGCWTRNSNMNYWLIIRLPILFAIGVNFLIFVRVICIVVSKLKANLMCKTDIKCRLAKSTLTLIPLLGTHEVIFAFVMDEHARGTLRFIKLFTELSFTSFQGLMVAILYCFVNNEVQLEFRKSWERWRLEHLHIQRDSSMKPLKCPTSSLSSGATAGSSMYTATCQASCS
Chain of human GLP-1 receptor (GLP-1R) (P43220 24-463): as above
T1 sequence (P47871 26-477): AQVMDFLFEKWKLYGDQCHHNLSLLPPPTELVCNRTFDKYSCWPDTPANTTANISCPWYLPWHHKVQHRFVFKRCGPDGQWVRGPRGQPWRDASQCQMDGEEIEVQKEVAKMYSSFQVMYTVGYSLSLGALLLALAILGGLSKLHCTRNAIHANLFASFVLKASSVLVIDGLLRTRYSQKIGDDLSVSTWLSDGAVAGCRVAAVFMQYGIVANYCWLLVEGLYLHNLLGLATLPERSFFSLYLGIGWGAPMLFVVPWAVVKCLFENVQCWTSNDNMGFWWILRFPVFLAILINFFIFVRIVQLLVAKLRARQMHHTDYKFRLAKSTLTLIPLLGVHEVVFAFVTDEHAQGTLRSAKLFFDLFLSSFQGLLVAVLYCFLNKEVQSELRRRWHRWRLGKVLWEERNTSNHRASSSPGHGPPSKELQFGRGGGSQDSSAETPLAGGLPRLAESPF

For the molecule `CC[C@H](C)[C@H](NC(=O)[C@H](CC(C)C)NC(=O)[C@H](Cc1ccc(O)cc1)NC(=O)[C@@H](CCC(=O)O)NC(=O)[C@@H](NC(=O)[C@H](Cc1ccccc1)NC(=O)[C@H](C)NC(=O)C(C)(C)NC(=O)[C@H](CCC(N)=O)NC(=O)[C@H](C)NC(=O)[C@H](CCCCNC(=O)COCCOCCNC(=O)COCCOCCNC(=O)CC[C@H](NC(=O)CCCCCCCCCCCCCCCCC(=O)O)C(=O)O)NC(=O)[C@H](CCCN)NC(=O)[C@H](CC(=O)O)NC(=O)[C@H](CC(C)C)NC(=O)[C@](C)(CC(C)C)NC(=O)[C@@H](NC(=O)[C@H](CO)NC(=O)[C@H](Cc1ccc(O)cc1)NC(=O)[C@H](CC(=O)O)NC(=O)[C@H](CO)NC(=O)[C@@H](NC(=O)[C@H](Cc1ccccc1)NC(=O)[C@@H](NC(=O)CNC(=O)[C@H](CCC(=O)O)NC(=O)C(C)(C)NC(=O)[C@H](N)Cc1ccc(O)cc1)[C@@H](C)O)[C@@H](C)O)[C@@H](C)CC)C(C)C)C(=O)N[C@@H](C)C(=O)NCC(=O)NCC(=O)N1CCC[C@H]1C(=O)N[C@@H](CO)C(=O)N[C@@H](CO)C(=O)NCC(=O)N[C@@H](C)C(=O)N1CCC[C@H]1C(=O)N1CCC[C@H]1C(=O)N1CCC[C@H]1C(=O)N[C@@H](CO)C(N)=O` [Example 364] (H-[dY][Aib]EGTFTSDYSI[αMeL]LD[Orn]K([AEEA-AEEA-γGlu-C18 diacid])AQ[Aib]AFV[dE]YLIAGGPSSGAPPPS-NH2), the results for the Ki at human Gcg receptor, on human GLP-1R [1] and at human GIP receptor were above 1150 nM, 17.2 nM and 0.672 nM, respectively. Also, the values for the EC50 (in test [2]; in test [3]; on human GLP-1R [4] (CHO-K1 cells)) were 1 nM, 0.351 nM and above 12 µM, respectively. In addition, the pEC50 on human GLP-1R [4] (CHO-K1 cells, 0.1% w/v hydrolyzed Casein, read-out: hGLP1R B-Arrestin2 Rel EC50) is below 4.92.
For the molecule `CC[C@H](C)[C@H](NC(=O)[C@H](CC(C)C)NC(=O)[C@H](Cc1ccc(O)cc1)NC(=O)[C@H](CCC(=O)O)NC(=O)[C@@H](NC(=O)[C@H](Cc1ccccc1)NC(=O)[C@H](C)NC(=O)C(C)(C)NC(=O)[C@H](CCC(N)=O)NC(=O)[C@H](C)NC(=O)[C@H](CCCCNC(=O)COCCOCCNC(=O)COCCOCCNC(=O)CC[C@H](NC(=O)CCCCCCCCCCCCCCCCCCC(=O)O)C(=O)O)NC(=O)[C@H](CCCN)NC(=O)[C@H](CC(=O)O)NC(=O)[C@H](CC(C)C)NC(=O)[C@](C)(CC(C)C)NC(=O)[C@@H](NC(=O)[C@H](CO)NC(=O)[C@H](Cc1ccc(O)cc1)NC(=O)[C@H](CC(=O)O)NC(=O)[C@H](CO)NC(=O)[C@@H](NC(=O)[C@H](Cc1ccccc1)NC(=O)[C@@H](NC(=O)CNC(=O)[C@H](CCC(=O)O)NC(=O)C(C)(C)NC(=O)[C@H](N)Cc1ccc(O)cc1)[C@@H](C)O)[C@@H](C)O)[C@@H](C)CC)C(C)C)C(=O)N[C@@H](CCC(=O)O)C(=O)NCC(=O)NCC(=O)N1CCC[C@H]1C(=O)N[C@@H](CO)C(=O)N[C@@H](CO)C(=O)NCC(=O)N[C@@H](C)C(=O)N1CCC[C@H]1C(=O)N1CCC[C@H]1C(=O)N1CCC[C@H]1C(=O)N[C@@H](CO)C(N)=O` [Example 360] (H-[dY][Aib]EGTFTSDYSI[αMeL]LD[Orn]K([AEEA-AEEA-γGlu-C20 diacid])AQ[Aib]AFVEYLIEGGPSSGAPPPS-NH2), the Ki was 485 nM on human Gcg receptor, 1.74 nM at human GLP-1R [1] and 0.128 nM on human GIP receptor. For the same molecule, the EC50 is 0.145 nM in test [2], 0.197 nM in test [3] and 0.0395 µM on human GLP-1R [4] (CHO-K1 cells). In addition, the “hGLP1R B-Arrestin2 % Top” value on human GLP-1R [4] was found to be 25.8%.
For `CC[C@H](C)[C@H](NC(=O)[C@H](CC(C)C)NC(=O)[C@H](Cc1ccc(O)cc1)NC(=O)[C@@H](CCC(=O)O)NC(=O)[C@@H](NC(=O)[C@H](Cc1ccccc1)NC(=O)[C@H](C)NC(=O)C(C)(C)NC(=O)[C@H](CCC(N)=O)NC(=O)[C@H](C)NC(=O)[C@H](CCCCNC(=O)COCCOCCNC(=O)COCCOCCNC(=O)CC[C@H](NC(=O)CCCCCCCCCCCCCCCCCCC(=O)O)C(=O)O)NC(=O)[C@H](CCCCN)NC(=O)[C@H](CC(=O)O)NC(=O)[C@H](CC(C)C)NC(=O)[C@](C)(CC(C)C)NC(=O)[C@@H](NC(=O)[C@H](CO)NC(=O)[C@H](Cc1ccc(O)cc1)NC(=O)[C@H](CC(=O)O)NC(=O)[C@H](CO)NC(=O)[C@@H](NC(=O)[C@H](Cc1ccccc1)NC(=O)[C@@H](NC(=O)CNC(=O)[C@H](CCC(=O)O)NC(=O)C(C)(C)NC(=O)[C@H](N)Cc1ccc(O)cc1)[C@@H](C)O)[C@@H](C)O)[C@@H](C)CC)C(C)C)C(=O)N[C@@H](C)C(=O)NCC(=O)NCC(=O)N1CCC[C@H]1C(=O)N[C@@H](CO)C(=O)N[C@@H](CO)C(=O)NCC(=O)N[C@@H](C)C(=O)N1CCC[C@H]1C(=O)N1CCC[C@H]1C(=O)N1CCC[C@H]1C(=O)N[C@@H](CO)C(N)=O` [Example 361] (H-[dY][Aib]EGTFTSDYSI[αMeL]LDKK([AEEA-AEEA-γGlu-C20 diacid])AQ[Aib]AFV[dE]YLIAGGPSSGAPPPS-NH2), the values for the EC50 (in test [2]; in test [3]; at human GLP-1R [4] (CHO-K1 cells)) were 0.955 nM, 0.401 nM and 0.269 µM, respectively. For the same molecule, on human GLP-1R [4], the “hGLP1R B-Arrestin2 % Top” value is 20.2%.
Regarding `CC[C@H](C)[C@H](NC(=O)[C@H](CC(C)C)NC(=O)[C@H](Cc1ccc(O)cc1)NC(=O)[C@@H](CCC(=O)O)NC(=O)[C@@H](NC(=O)[C@H](Cc1ccccc1)NC(=O)[C@H](CCC(=O)O)NC(=O)C(C)(C)NC(=O)[C@H](CCC(N)=O)NC(=O)[C@H](C)NC(=O)[C@H](CCCCNC(=O)COCCOCCNC(=O)COCCOCCNC(=O)CC[C@H](NC(=O)CCCCCCCCCCCCCCCCC(=O)O)C(=O)O)NC(=O)[C@H](CCN)NC(=O)[C@H](CC(=O)O)NC(=O)[C@H](CC(C)C)NC(=O)[C@](C)(CC(C)C)NC(=O)[C@@H](NC(=O)[C@H](CO)NC(=O)[C@H](Cc1ccncc1)NC(=O)[C@H](CC(=O)O)NC(=O)[C@H](CO)NC(=O)[C@@H](NC(=O)[C@](C)(Cc1ccccc1F)NC(=O)[C@@H](NC(=O)CNC(=O)[C@H](CCC(=O)O)NC(=O)C(C)(C)NC(=O)[C@@H](N)Cc1ccc(O)cc1)[C@@H](C)O)[C@@H](C)O)[C@@H](C)CC)[C@@H](C)CC)C(=O)N[C@@H](CCC(=O)O)C(=O)NCC(=O)NCC(=O)N1CCC[C@H]1C(=O)N[C@@H](CO)C(=O)N[C@@H](CO)C(=O)NCC(=O)N[C@@H](C)C(=O)N1CCC[C@H]1C(=O)N1CCC[C@H]1C(=O)N1CCC[C@H]1C(=O)N[C@@H](CO)C(N)=O` [Example 233] (H-Y[Aib]EGT[αMePhe(2-F)]TSD[4Pal]SI[αMeL]LD[Dab]K([AEEA-AEEA-γGlu-C18 diacid])AQ[Aib]EFI[dE]YLIEGGPSSGAPPPS-NH2), the Ki at human Gcg receptor was above 1150 nM; at human GLP-1R [1], 5.99 nM; at human GIP receptor, 0.0445 nM. In addition, the EC50 was 0.0549 nM in test [2] and 0.0288 nM in test [3].
